Test results from article PMC5510889 (Metallomics : integrated biometal science, 2017).

Columns and labels:
IsdG [1] = target: T1, IsdG (Staphylococcus aureus, UniProt Q7A649); experiment: UV/Vis absorption-detected heme titration; type: binding
IsdI [2] = target: T2, IsdI (Staphylococcus aureus, UniProt Q7A827); experiment: UV/Vis absorption-detected heme titration; type: binding
IsdG [3] = target: T1, IsdG; experiment: Fluorescence-detected heme titration; type: binding
IsdI [4] = target: T2, IsdI; experiment: Fluorescence-detected heme titration; type: binding
IsdG [5] = target: T1, IsdG; experiment: Apomyoglobin competition assay; type: binding; conditions: ratio of koff values, IsdG–heme vs IsdI–heme
myoglobin = conditions: cited from earlier work
IsdG [6] = target: T1, IsdG; conditions: UV/Vis titration fitted to Michaelis-Menten model; cited from earlier work
IsdI [7] = target: T2, IsdI; conditions: UV/Vis titration fitted to Michaelis-Menten model; cited from earlier work
IsdG [8] = target: T1, IsdG; conditions: cited from earlier work

T2 sequence (Q7A827 whole entry): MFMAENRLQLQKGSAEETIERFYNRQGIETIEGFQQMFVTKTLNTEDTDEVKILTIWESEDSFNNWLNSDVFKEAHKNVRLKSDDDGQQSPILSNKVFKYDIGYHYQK
T1 sequence (Q7A649 whole entry): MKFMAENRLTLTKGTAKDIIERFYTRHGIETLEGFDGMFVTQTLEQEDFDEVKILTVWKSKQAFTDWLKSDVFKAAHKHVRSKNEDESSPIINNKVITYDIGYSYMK

Row | Structure (SMILES) | Kd (IsdG [1]) [nM] | Kd (IsdI [2]) [nM] | Kd (IsdG [3]) [nM] | heme binding to IsdG tighter than heme binding to IsdI (IsdG [3]; ratio of fluorescence Kd values, IsdG vs IsdI) | Kd (IsdI [4]) [nM] | rate of heme dissociation from IsdG–heme slower than from IsdI–heme (IsdG [5]) | Kd for heme dissociation from myoglobin (myoglobin) | Kd for heme, IsdG, as reported in the literature (IsdG [6]) | Kd for heme, IsdI, as reported in the literature (IsdI [7]) | mode of inhibition of IsdG (IsdG [8])
1 | C=CC1=C(C)c2cc3[n-]c(cc4nc(cc5[n-]c(cc1n2)c(C)c5CCC(=O)O)C(CCC(=O)O)=C4C)c(C)c3C=C.[Fe+3] [heme] | 34 ± 20 | 15 ± 10 | 1.4 ± 0.6 | nine-fold | 12.9 ± 1.3 | four-fold | femtomolar | micromolar | micromolar | 
2 | [N-]=[N+]=[N-] [azide] |  |  |  |  |  |  |  |  |  | uncompetitive inhibitors
